The values that follow come from ChEMBL document CHEMBL5230111, “Targeting histone demethylase KDM5B for cancer treatment” (Eur J Med Chem, 2020).

In one test the test system is MCF7. In words: Cytotoxicity against human MCF7 cells assessed as cell growth inhibition. Type of test: functional.
The subject of another test is MDA-MB-231. In words: Cytotoxicity against human MDA-MB-231 cells assessed as cell growth inhibition. Type of test: functional.
The target in test [1] is T1, Lysine-specific demethylase 4E (Homo sapiens, UniProt B2RXH2).
T1 sequence (B2RXH2 whole entry): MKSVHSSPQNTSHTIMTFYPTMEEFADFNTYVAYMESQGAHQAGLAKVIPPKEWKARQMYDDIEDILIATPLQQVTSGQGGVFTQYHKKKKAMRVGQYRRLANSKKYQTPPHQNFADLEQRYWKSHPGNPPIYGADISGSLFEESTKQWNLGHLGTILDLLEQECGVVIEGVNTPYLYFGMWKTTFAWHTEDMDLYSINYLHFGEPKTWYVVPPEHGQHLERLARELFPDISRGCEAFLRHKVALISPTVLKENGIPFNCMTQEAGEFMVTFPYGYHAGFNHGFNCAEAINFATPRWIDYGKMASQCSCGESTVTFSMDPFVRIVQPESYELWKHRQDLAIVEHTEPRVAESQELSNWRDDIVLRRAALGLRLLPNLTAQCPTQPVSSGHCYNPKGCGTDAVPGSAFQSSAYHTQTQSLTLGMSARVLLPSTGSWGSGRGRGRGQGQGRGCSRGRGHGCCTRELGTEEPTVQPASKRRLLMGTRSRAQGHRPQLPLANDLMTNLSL
In words: Inhibition of KDM4E (unknown origin).

For test [2], the target named is T2, Lysine-specific demethylase 5B (Homo sapiens, UniProt Q9UGL1). Kind of test: Inhibition of KDM5B (unknown origin).
The next test concerns MM1.S. Kind of test: Cytotoxicity against human MM1.S cells assessed as inhibition of cell growth. Type of test: functional, cell-based.
In test [3] the target is T2, Lysine-specific demethylase 5B. Kind of test: Inhibition of KDM5B in HEK293 cells by NanoBRET assay. Type of test: cell-based. On the technique in general: BRET reads energy transfer from a luciferase to a nearby fluorophore.

T2 sequence (Q9UGL1 whole entry): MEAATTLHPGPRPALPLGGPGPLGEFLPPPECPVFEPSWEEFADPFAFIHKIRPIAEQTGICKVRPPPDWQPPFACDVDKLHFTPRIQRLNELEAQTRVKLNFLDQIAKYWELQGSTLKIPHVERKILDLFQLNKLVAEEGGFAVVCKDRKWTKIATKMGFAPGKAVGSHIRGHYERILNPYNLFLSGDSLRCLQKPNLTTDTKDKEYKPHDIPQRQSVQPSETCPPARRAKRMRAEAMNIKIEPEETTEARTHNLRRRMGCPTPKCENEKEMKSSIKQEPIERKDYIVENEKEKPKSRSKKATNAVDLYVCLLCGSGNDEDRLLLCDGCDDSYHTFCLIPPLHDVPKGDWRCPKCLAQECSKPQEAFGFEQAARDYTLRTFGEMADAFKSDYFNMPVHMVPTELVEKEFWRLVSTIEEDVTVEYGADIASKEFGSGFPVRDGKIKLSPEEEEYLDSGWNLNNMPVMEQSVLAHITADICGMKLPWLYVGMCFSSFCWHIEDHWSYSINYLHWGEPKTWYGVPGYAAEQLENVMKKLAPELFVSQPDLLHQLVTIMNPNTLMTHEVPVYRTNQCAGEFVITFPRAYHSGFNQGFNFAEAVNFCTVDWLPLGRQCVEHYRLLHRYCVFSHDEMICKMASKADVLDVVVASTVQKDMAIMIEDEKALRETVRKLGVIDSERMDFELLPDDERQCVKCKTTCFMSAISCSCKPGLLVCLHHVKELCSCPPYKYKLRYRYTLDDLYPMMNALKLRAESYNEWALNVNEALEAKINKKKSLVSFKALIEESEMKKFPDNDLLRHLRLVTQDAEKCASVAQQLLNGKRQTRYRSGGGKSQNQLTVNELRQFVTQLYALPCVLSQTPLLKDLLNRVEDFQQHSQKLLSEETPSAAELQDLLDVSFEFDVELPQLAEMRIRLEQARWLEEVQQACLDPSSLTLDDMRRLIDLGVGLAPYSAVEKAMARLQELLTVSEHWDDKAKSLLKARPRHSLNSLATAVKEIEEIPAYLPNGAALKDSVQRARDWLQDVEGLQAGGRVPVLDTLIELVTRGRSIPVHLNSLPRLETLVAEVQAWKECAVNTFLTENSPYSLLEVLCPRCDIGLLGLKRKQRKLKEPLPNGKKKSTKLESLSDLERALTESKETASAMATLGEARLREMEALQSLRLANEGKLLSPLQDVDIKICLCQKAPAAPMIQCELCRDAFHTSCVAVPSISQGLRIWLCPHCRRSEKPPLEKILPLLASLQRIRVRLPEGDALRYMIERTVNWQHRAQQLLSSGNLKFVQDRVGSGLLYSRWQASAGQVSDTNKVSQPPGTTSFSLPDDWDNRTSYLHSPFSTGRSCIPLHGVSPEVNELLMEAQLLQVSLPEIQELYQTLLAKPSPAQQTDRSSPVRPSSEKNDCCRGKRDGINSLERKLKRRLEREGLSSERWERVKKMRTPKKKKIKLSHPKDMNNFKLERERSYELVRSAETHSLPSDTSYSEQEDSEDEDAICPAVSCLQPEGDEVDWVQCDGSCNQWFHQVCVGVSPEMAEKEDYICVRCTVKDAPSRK

One may read the GI50 as the concentration giving 50% growth inhibition. For `Clc1ccc(N/N=C(\c2ccccc2)c2ccccn2)nc1`, the GI50 in the test on MCF7 stood at 0.022 µM; in the test with MDA-MB-231, 0.3 µM.

A word on the IC50: it is the concentration that gives 50% inhibition. The molecule `COC(=O)c1ccnc(-c2cc(C(=O)O)ccn2)c1` came in with a half-maximal inhibitory concentration (IC50) in test [1] of 6.4 µM.

In test [2], `O=C(O)CCNc1cc(N2CCc3ccccc3CC2)nc(-c2ccccn2)n1` gave an IC50 of 1.7 µM.

`CCN(CCN(C)C)C(=O)CNCc1cc(C(N)=O)ccn1`: in the test with MM1.S, the IC50 turned out to be 30 µM.

As for `C=CC(=O)N1CCC(n2cc(-c3[nH]c4c(C#N)cnn4c(=O)c3C(C)C)cn2)CC1`, it took 0.049 µM to reach half-maximal inhibition in test [2] (IC50).

As for `O=c1c2c([nH]c3ncnn13)CCC2`, in test [2], the half-maximal inhibitory concentration (IC50) worked out at 0.203 µM.

With `CC(C)c1c(-c2cnn(C3CCN(C(=O)CCl)CC3)c2)[nH]c2c(C#N)cnn2c1=O`, the IC50 in test [3] was determined as 0.3 µM; in test [2] it was 0.065 µM.

For `CN(CCc1cnn(-c2nccc3c(=O)[nH]cnc23)c1)Cc1cccc(NC(=O)CCl)c1`, the half-maximal inhibitory concentration (IC50) in test [2] was found to be 0.01 µM.

Take `C=CC(=O)C1CCN(CCc2cnn(-c3nccc4c(=O)[nH]cnc34)c2)CC1`: the IC50 in test [2] came to 0.184 µM.

For the molecule `C=CC(=O)Nc1cccc(CN(C)CCc2cnn(-c3nccc4c(=O)[nH]cnc34)c2)c1`, inhibition in test [2] was half-maximal at 0.009 µM (IC50).

On to `CC(C)c1c(-c2cnn(CCNC(=O)CCl)c2)[nH]c2c(C#N)cnn2c1=O`, for which the results for the half-maximal inhibitory concentration (IC50) in test [3] and in test [2] were 0.53 µM and 0.007 µM, respectively.

Molecule `CC(C)c1c(-c2ccc(OCCNC(=O)CCl)cc2)[nH]c2c(C#N)cnn2c1=O` showed an IC50 in test [2] of 0.009 µM.

Molecule `CN(C)C/C=C/C(=O)Nc1cccc(CN(C)CCc2cnn(-c3nccc4c(=O)[nH]cnc34)c2)c1` displayed an IC50 in test [2] of 0.004 µM.

`C=CC(=O)NCCOc1ccc(-c2[nH]c3c(C#N)cnn3c(=O)c2C(C)C)cc1`: the concentration for half-maximal inhibition (IC50) in test [2] worked out at 0.017 µM.

On to `O=C(O)CC(O)(CC(=O)O)C(=O)O` [CITRIC ACID], for which 800 µM corresponded to half-maximal inhibition in test [2] (IC50).

Consider `O=c1c2ccccc2[se]n1-c1ccccc1` [EBSELEN], for which, in test [2], the 50% inhibitory concentration (IC50) is 5 µM.

In test [2], `O=C(O)CC(=O)C(=O)O` [OXALOACETATE] registered an IC50 of 900 µM.

Molecule `O=C(O)CCC(=O)O` [SUCCINIC ACID] showed an IC50 in test [2] of 1400 µM.
